Data reported in paper PMC9110600, “Purification, identification and characterization of Nag2 N-acetylglucosaminidase from Trichoderma virens strain mango” (Botanical Studies, 2022).

Biological target: T1, TvmNAG2 (Trichoderma virens, UniProt G9MXZ5)
T1 construct: gene NAG2; mature (signal peptide removed)
Test: p-nitrophenol release at […] nm, Lineweaver-Burk
Format: biochemical
Settings: standard assay: 50 mM phosphate buffer pH 5, 65 °C, 30 min

T1 sequence (G9MXZ5 entry or part of it): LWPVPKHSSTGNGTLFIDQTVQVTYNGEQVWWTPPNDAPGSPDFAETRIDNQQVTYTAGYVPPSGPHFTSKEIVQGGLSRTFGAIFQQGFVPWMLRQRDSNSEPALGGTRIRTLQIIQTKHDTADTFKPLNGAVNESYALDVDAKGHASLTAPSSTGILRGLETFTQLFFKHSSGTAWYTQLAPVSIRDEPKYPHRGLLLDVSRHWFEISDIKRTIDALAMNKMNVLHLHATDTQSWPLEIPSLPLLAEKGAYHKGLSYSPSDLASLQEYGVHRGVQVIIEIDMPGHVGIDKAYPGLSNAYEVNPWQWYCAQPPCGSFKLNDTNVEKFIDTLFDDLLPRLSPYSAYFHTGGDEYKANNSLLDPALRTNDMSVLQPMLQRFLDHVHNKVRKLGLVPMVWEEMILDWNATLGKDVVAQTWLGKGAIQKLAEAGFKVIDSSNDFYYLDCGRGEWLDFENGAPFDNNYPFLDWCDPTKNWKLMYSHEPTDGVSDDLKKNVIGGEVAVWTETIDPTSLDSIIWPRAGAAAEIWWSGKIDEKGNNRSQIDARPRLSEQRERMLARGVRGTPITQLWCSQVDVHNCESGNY

`CC(=O)N[C@H]1[C@H](Oc2ccc([N+](=O)[O-])cc2)O[C@H](CO)[C@@H](O)[C@@H]1O` [pNP-NAG] was tested, and the Km was about 450 µM.
